Experimental data taken from patent publication US20220372040A1, “METTL3 MODULATORS” (Accent Therapeutics, Inc., priority 2020, published 2022).
Counter-ions that a name gives are not always drawn. Like-named read-outs stand apart in the source and are kept apart here.

How the values were obtained:
Assay type in all cases: biochemical
METTL1/WDR4 = METTL1/WDR4 (Homo sapiens, UniProt Q9UBP6); experiment: METTL1 assay (3H-SAM flashplate scintillation)
Description: (§1) Assays were performed in a 25 μl-volume in 384-well V-bottom polypropylene microplates (Greiner Bio-One, cat. No. 781280) at ambient temperature. Optimized 1× assay buffer was 20 mM HEPES pH 7.5, 50 mM KCl, 250 μM MgCl2, 1 mM DTT, 0.01% Tween, 0.01% BSG, 0.004 U/μl RNAseOUT (cat. No. 10777019, ThermoFisher Scientific, Waltham, Mass.). For compound screening METTL1/WDR4 (final concentration, f.c.=6.25 nM) was added using a Multidrop Combi (ThermoFisher Scientific, Waltham, Mass.) and preincubated for 5 min. Reactions were started by adding 3′ biotinylated RNA ([…]-biotin) (f.c.=25 nM) and 3H-SAM (f.c.=60 nM) substrates. Reactions proceeded for 20 minutes and were quenched with excess non-radioactive SAM (f.c.=15 μM). The reactions were then transferred to streptavidin-coated flashplates and incubated for 2 hours at 25° C. Following two washing cycles with 0.1% Tween-20, the plates were sealed and read on a TopCount (PerkinElmer, Waltham, Mass.) plate-based scintillation counter. For determination of kinetic parameters, reaction times were optimized so that measurements were taken during the initial velocity phase of the reaction.

METTL3/METTL14 = METTL3/METTL14 (Homo sapiens, UniProt Q86U44); experiment: METTL3-14 standard enzyme assay (3H-SAM flashplate scintillation); details: METTL3/METTL14 2.5 nM, RNA 100 nM, 3H-SAM 100 nM, 30 min
METTL3/METTL14, sequence (Q86U44 whole entry, species assumed): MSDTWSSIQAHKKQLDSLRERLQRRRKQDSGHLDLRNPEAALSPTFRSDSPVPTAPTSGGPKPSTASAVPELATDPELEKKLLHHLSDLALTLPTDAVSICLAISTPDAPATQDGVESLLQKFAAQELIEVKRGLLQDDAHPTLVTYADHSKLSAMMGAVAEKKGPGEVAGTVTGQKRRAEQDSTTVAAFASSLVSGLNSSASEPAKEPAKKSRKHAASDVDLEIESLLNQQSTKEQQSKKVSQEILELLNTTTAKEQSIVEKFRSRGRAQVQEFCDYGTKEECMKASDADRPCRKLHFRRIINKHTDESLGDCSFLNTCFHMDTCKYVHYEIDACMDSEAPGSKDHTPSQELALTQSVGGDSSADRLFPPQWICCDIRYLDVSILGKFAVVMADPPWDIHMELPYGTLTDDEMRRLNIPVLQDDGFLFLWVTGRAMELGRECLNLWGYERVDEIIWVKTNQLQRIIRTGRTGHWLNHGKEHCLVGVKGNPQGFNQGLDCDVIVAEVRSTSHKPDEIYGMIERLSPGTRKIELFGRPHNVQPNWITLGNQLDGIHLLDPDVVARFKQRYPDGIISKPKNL
METTL3/METTL14, sequence (Q9HCE5 whole entry partner, species assumed): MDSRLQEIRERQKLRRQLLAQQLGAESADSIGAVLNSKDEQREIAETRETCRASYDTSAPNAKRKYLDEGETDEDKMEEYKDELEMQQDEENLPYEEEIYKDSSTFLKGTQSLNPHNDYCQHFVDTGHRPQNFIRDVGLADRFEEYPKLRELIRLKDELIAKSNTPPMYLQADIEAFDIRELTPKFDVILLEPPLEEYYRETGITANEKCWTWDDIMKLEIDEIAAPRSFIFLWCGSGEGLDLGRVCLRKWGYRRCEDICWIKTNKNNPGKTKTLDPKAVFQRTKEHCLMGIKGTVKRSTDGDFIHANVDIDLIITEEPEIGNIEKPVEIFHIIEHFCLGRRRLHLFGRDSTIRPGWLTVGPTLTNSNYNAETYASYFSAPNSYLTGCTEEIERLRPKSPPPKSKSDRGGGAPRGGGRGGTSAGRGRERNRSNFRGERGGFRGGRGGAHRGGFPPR
Description: METTL3-14 Standard Enzyme Assay
Assays were performed in a 25 μl-volume in 384-well V-bottom polypropylene microplates (Greiner Bio-One, cat. No. 781280) at ambient temperature. Optimized 1× assay buffer was 20 mM HEPES pH 7.5, 50 mM KCl, 250 μM MgCl2, 1 mM DTT, 0.01% Tween, 0.01% BSG, 0.004 U/μl RNAseOUT (cat. No. 10777019, ThermoFisher Scientific, Waltham, Mass.). For compound screening METTL3/METTL14 (final concentration, f.c.=2.5 nM) was added using a Multidrop Combi (ThermoFisher Scientific, Waltham, Mass.) and preincubated for 5 min. Reactions were started by adding 3′ biotinylated RNA (UCUGGACUAAA-biotin) (f.c.=100 nM) and 3H-SAM (f.c.=100 nM) substrates. Reactions proceeded for 30 minutes and were quenched with excess non-radioactive SAM (f.c.=15 μM). The reactions were then transferred to streptavidin-coated flashplates and incubated for 2 hours at 25° C. Following two washing cycles with 0.1% Tween-20, the plates were sealed and read on a TopCount (PerkinElmer, Waltham, Mass.) plate-based scintillation counter. For determination of kinetic parameters, reaction times were optimized so that measurements were taken during the initial velocity phase of the reaction.

PRMT5-MEP50 = PRMT5-MEP50 (Homo sapiens, UniProt O14744); experiment: PRMT5 assay (3H-SAM flashplate scintillation); details: PRMT5-MEP50 2.5 nM, histone H4 peptide 100 nM, 3H-SAM 250 nM, 60 min
PRMT5-MEP50, sequence (O14744 whole entry): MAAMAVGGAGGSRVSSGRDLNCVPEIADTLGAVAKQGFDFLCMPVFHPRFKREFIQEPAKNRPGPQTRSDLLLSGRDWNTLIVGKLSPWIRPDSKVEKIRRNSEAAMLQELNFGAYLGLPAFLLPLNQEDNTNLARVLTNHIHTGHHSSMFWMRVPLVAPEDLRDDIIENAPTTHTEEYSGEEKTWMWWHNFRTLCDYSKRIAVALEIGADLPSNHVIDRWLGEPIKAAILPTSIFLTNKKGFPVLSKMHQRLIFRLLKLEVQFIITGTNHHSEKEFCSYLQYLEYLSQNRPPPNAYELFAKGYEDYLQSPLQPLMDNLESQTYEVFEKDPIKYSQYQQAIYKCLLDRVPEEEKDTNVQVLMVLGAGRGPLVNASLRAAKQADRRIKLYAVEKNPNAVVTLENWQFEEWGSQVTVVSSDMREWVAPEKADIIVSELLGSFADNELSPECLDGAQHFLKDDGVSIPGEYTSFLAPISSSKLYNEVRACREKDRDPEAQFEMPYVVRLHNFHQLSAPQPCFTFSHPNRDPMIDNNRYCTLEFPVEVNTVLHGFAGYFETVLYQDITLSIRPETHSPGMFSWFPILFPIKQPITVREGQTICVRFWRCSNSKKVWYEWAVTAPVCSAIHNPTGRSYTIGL
PRMT5-MEP50, sequence (Q9BQA1 whole entry partner): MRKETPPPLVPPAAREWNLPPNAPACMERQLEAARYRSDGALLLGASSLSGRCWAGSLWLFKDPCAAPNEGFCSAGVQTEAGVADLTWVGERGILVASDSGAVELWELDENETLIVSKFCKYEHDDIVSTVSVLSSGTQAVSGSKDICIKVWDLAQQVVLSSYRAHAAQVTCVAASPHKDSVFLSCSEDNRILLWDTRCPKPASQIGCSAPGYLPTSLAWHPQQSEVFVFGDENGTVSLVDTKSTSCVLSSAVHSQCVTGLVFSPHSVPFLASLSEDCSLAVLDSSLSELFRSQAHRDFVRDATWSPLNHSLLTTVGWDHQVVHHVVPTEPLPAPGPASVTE
Description: Assays were performed in a 25 μl-volume in 384-well V-bottom polypropylene microplates (Greiner Bio-One, cat. No. 781280) at ambient temperature. Optimized 1× assay buffer was 20 mM Tris-HCl pH 8.0, 1 mM DTT, […]. For compound screening PRMT5-MEP50 (final concentration, f.c.=2.5 nM) was added using a Multidrop Combi (ThermoFisher Scientific, Waltham, Mass.) and preincubated for 5 min. Reactions were started by adding 3′ biotinylated histone H4 peptide acetylated on serine 1 (Ac-[…]-Biotin) (f.c.=100 nM) and 3H-SAM (f.c.=250 nM) substrates. Reactions proceeded for 60 minutes and were quenched with excess non-radioactive SAM (f.c.=15 μM). The reactions were then transferred to streptavidin-coated flashplates and incubated for 2 hours at 25° C. Following two washing cycles with 0.1% Tween-20, the plates were sealed and read on a TopCount (PerkinElmer, Waltham, Mass.) plate-based scintillation counter. For determination of kinetic parameters, reaction times were optimized so that measurements were taken during the initial velocity phase of the reaction.

METTL16 = biological target: T1, METTL16 (Homo sapiens, UniProt Q86W50); experiment: METTL16 assay (3H-SAM flashplate scintillation); details: METTL16 100 nM, RNA 50 nM, 3H-SAM 200 nM, SAM 800 nM, 20 min
T1 sequence (Q86W50 1-562): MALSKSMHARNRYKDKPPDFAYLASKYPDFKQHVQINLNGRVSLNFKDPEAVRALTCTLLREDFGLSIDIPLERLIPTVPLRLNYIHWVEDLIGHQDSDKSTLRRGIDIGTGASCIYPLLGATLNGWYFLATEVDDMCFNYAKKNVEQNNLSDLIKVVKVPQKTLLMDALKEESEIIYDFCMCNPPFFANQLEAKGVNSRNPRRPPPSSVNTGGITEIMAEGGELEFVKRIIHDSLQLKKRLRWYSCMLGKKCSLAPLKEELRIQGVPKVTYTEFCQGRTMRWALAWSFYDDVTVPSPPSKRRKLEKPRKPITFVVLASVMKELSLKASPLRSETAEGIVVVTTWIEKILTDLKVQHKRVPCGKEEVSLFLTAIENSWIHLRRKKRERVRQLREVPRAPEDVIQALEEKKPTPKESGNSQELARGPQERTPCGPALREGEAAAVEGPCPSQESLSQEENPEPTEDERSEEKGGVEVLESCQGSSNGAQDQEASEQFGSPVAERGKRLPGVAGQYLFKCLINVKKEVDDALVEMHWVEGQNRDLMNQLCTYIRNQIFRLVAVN
Description: as §1, with “KCl,” for “KCl, 250 μM MgCl2,”, “METTL16” for “METTL1/WDR4”, “f.c.=100” for “f.c.=6.25”, “(f.c.=50 nM), 3H-SAM (f.c.=200” for “(f.c.=25”, “non-radiolabeled SAM (f.c.=800” for “3H-SAM (f.c.=60”, “(f.c.=100” for “(f.c.=15”

[1] = METTL1/WDR4 6.25 nM, RNA 25 nM, 3H-SAM 60 nM, 20 min, read-out: METTL1 IC50

METTL1/WDR4, sequence (Q9UBP6 whole entry, species assumed): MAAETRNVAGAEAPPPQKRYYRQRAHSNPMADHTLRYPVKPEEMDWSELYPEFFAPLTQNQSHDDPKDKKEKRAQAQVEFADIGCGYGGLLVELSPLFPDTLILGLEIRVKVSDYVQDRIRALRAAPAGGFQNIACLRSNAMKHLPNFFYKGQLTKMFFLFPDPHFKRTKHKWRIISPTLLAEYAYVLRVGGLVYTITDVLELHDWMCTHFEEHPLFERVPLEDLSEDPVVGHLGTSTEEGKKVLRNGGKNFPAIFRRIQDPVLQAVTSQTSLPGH
METTL1/WDR4, sequence (P57081 whole entry partner, species assumed): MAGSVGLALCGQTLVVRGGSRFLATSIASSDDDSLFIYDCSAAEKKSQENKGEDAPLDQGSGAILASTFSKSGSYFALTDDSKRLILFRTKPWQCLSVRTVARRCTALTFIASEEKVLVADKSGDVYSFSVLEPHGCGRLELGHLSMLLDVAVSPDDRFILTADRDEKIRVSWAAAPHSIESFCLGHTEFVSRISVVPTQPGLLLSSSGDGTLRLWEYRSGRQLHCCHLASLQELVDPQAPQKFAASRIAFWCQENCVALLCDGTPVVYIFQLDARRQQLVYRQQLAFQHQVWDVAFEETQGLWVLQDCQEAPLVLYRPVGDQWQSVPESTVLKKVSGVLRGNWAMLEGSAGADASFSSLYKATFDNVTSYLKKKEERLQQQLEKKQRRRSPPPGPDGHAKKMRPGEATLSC

Row | IC50 (METTL16) [nM] | Structure (SMILES) | IC50 (METTL1/WDR4; [1]) [nM] | IC50 (METTL3/METTL14) [nM] | IC50 (PRMT5-MEP50) [nM] | IC50 (METTL1/WDR4) [nM]
1 |  | CNc1ccc2ccc(OCc3cncc(-n4cc(C5CCC(F)(F)CC5)c5c(N)ncnc54)c3)cc2n1 [Compound I-3] | > 1000 | 10 to 100 | > 1000 | 
2 | > 1000 | CNc1ccc2ccc(CCc3cncc(-n4cc(Cl)c5c(N)ncnc54)c3)cc2n1 [Compound I-51] |  | 10 to 100 | > 1000 | 
3 |  | Nc1ncnc2c1c(C1CCCC1)cn2-c1cncc(COc2ccc3ccc(N4CCC4)nc3c2)c1 [Compound I-94] | > 1000 | < 10 | > 1000 | 
4 |  | CCc1cc(NCCN(C)C)c2ccc(OCc3cncc(-n4ccc5c(N)ncnc54)n3)cc2n1 [Compound I-89] | > 1000 | < 10 | > 1000 | 
5 | > 1000 | Nc1ncnc2c1c(Cl)cn2-c1cncc(COc2ccc3ccc(N4CCCC4)nc3c2)c1 [Compound I-40] |  | 10 to 100 | > 1000 | 
6 |  | CNc1ccc2ccc(OCc3cc(-n4cc(Cl)c5c(N)ncnc54)cnc3NC)cc2n1 [Compound I-13] | > 1000 | 10 to 100 | > 1000 | 
7 |  | Nc1ncnc2c1c(Cl)cn2-c1csc(COc2ccc3ccc(N4CCCC4)nc3c2)n1 [Compound I-23, 5-chloro-7-(2-(((2-(pyrrolidin-1-yl)quinolin-7-yl)oxy)methyl)thiazol-4-yl)-7H-pyrrolo[2,3-d]pyrimidin-4-amine hydrochloride] |  | > 1000 | > 1000 | > 1000
8 |  | Nc1ncnc2c1ccn2-c1cncc(COc2ccc3c(=O)cc[nH]c3c2)c1 [Compound I-88] | > 1000 | > 1000 | > 1000 | 
9 |  | CN(Cc1cncc(-n2cc(-c3ccn(C)n3)c3c(N)ncnc32)c1)CC1CC1 [Compound I-100] | > 1000 | > 1000 | > 1000 | 
10 |  | CNc1ccc2ccc(COc3cncc(-n4ccc5c(N)ncnc54)c3)cc2n1 [Compound I-22, 7-{[(5-{4-amino-7H-pyrrolo[2,3-d]pyrimidin-7-yl}pyridin-3-yl)oxy]methyl}-N-methylquinolin-2-amine] | > 1000 | 10 to 100 | > 1000 | 
11 |  | CC(C)c1nc(N)c2ccc(OCc3cncc(-n4ccc5c(N)ncnc54)c3)cc2n1 [Compound I-91] | > 1000 | 10 to 100 | > 1000 | 
12 |  | CC(C)(C)c1cc(N)c2ccc(OCc3cncc(-n4ccc5c(N)ncnc54)c3)cc2n1 [Compound I-93] | > 1000 | < 10 | > 1000 | 
13 |  | CNc1ccc2ccc(OCc3nc(-n4cc(Cl)c5c(N)ncnc54)cs3)cc2n1 [Compound I-37] | > 1000 | 10 to 100 | > 1000 | 
14 |  | CCCC(=O)c1cn(-c2cncc(COc3ccc4ccc(NC)nc4c3)c2)c2ncnc(N)c12 [Compound I-96] | > 1000 | 10 to 100 | > 1000 | 
